Tests used:
[1] = molecular target: T1, Estrogen receptor (Homo sapiens, UniProt Q92731+P03372); details: t-47d
Description: Apparent binding affinity against estradiol-stimulated T-47D cell proliferation

[2] = molecular target: T1, Estrogen receptor; details: t-47d; remark: listed apart in the source
Description: Inhibition of estradiol-stimulated T-47D cell proliferation.

[3] = molecular target: T2, Estrogen receptor (Mus musculus) (UniProt O08537+P19785); assay: (§1) Uterine weight after 9 day treatment at 16 ug by oral gavage to ovariectomised mice without estrone; type: functional, tissue-based; details: Uterus
[4] = molecular target: T2, Estrogen receptor (Mus musculus); assay: as §1; type: functional, tissue-based; details: Uterus; remark: listed apart in the source
[5] = molecular target: T2, Estrogen receptor (Mus musculus); assay: (§2) Uterine weight after 9 day treatment at 47 ug by oral gavage to ovariectomised mice without estrone; type: functional, tissue-based; details: Uterus
[6] = molecular target: T2, Estrogen receptor (Mus musculus); assay: (§3) Uterine weight after 9 day treatment at 0.47 ug by oral gavage to ovariectomised mice without estrone; type: functional, tissue-based; details: Uterus
[7] = molecular target: T2, Estrogen receptor (Mus musculus); assay: (§4) Uterine weight after 9 day treatment at 1.6 ug by oral gavage to ovariectomised mice with estrone; type: functional, tissue-based; details: Uterus
[8] = molecular target: T2, Estrogen receptor (Mus musculus); assay: (§5) Uterine weight after 9 day treatment at 0.47 ug by oral gavage to ovariectomised mice with estrone; type: functional, tissue-based; details: Uterus
[9] = molecular target: T2, Estrogen receptor (Mus musculus); assay: (§6) Uterine weight after 9 day treatment at 4.7 ug by oral gavage to ovariectomised mice without estrone; type: functional, tissue-based; details: Uterus
[10] = molecular target: T2, Estrogen receptor (Mus musculus); assay: Uterine weight after 9 day treatment at 1.6 ug by oral gavage to ovariectomised mice without estrone; type: functional, tissue-based; details: Uterus
[11] = molecular target: T2, Estrogen receptor (Mus musculus); assay: Uterine weight after 9 day treatment at 47 ug by oral gavage to ovariectomised mice with estrone; type: functional, tissue-based; details: Uterus
[12] = molecular target: T2, Estrogen receptor (Mus musculus); assay: as §6; type: functional, tissue-based; details: Uterus; remark: listed apart in the source
[13] = molecular target: T2, Estrogen receptor (Mus musculus); assay: Uterine weight after 9 day treatment at 4.7 ug by oral gavage to ovariectomised mice with estrone; type: functional, tissue-based; details: Uterus
[14] = molecular target: T2, Estrogen receptor (Mus musculus); assay: as §5; type: functional, tissue-based; details: Uterus; remark: listed apart in the source
[15] = molecular target: T2, Estrogen receptor (Mus musculus); assay: as §6; type: functional, tissue-based; details: Uterus; remark: listed apart in the source
[16] = molecular target: T2, Estrogen receptor (Mus musculus); assay: as §4; type: functional, tissue-based; details: Uterus; remark: listed apart in the source
[17] = molecular target: T2, Estrogen receptor (Mus musculus); assay: as §2; type: functional, tissue-based; details: Uterus; remark: listed apart in the source
[18] = molecular target: T1, Estrogen receptor
Description: Inhibition of estradiol binding to estrogen receptor in Human Breast cancer cytosol (3.3% ethanol)

[19] = molecular target: T2, Estrogen receptor (Mus musculus); assay: as §2; type: functional, tissue-based; details: Uterus; remark: listed apart in the source
[20] = molecular target: T1, Estrogen receptor; remark: listed apart in the source
Description: Apparent inhibition constant for estrogen receptor in Human uterine cytosol in 3.3%ethanol

[21] = molecular target: T2, Estrogen receptor (Mus musculus); assay: (§7) Uterine weight after 9 day treatment at 16 ug by oral gavage to ovariectomised mice with estrone; type: functional, tissue-based; details: Uterus
[22] = molecular target: T2, Estrogen receptor (Mus musculus); assay: as §7; type: functional, tissue-based; details: Uterus; remark: listed apart in the source
[23] = molecular target: T2, Estrogen receptor (Mus musculus); assay: as §3; type: functional, tissue-based; details: Uterus; remark: listed apart in the source
[24] = molecular target: T1, Estrogen receptor; assay: Stimulation of alkaline phosphatase activity in human endometrial Ishikawa cells with 1 nM E2 estradiol; type: functional, cell-based
[25] = molecular target: T1, Estrogen receptor; assay: Relative Binding Affinity for estrogen receptor in Human Breast cancer or normal uterine cytosol in 3.3%ethanol compared to estradiol; type: protein assay; details: Uterus

T2 sequence (O08537 whole entry, looked up): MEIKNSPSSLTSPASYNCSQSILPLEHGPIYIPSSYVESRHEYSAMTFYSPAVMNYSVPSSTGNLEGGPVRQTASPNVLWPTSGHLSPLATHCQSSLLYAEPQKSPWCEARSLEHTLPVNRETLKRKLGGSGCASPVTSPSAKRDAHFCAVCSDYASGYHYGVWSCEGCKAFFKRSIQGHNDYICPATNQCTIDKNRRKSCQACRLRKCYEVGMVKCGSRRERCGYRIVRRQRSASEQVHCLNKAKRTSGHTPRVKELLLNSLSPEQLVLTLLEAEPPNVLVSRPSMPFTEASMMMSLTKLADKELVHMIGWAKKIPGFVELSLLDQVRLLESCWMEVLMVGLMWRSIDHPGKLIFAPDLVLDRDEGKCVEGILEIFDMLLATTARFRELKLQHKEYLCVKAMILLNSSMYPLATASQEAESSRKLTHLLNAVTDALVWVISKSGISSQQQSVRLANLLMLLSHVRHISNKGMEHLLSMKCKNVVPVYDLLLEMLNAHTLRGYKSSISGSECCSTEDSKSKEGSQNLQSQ
T2 sequence (P19785 whole entry, looked up): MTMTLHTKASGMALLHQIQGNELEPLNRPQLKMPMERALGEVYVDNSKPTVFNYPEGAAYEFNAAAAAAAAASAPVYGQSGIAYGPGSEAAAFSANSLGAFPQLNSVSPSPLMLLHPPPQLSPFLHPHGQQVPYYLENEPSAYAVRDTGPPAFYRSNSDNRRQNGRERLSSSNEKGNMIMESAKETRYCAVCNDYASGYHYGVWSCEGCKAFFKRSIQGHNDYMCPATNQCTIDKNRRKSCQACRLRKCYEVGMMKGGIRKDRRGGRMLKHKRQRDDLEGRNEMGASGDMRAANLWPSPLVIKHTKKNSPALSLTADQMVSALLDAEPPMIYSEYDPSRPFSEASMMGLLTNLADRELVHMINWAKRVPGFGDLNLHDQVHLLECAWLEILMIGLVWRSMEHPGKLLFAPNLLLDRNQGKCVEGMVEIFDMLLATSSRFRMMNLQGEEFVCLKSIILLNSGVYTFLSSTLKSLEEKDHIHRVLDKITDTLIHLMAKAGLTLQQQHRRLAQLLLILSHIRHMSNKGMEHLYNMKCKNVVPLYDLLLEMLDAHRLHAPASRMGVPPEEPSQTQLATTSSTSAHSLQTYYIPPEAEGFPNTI

| Structure (SMILES) | Ki [1] [nM] | IC50 [2] [nM] | Weight [3] [mg] | Weight [8] [mg] | Weight [10] [mg] | Weight [11] [mg] | Weight [13] [mg] | Weight [15] [mg] | Weight [16] [mg] | Weight [17] [mg] | Ki [18] [nM] | Weight [22] [mg] | Weight [23] [mg] | further results |
| --- | --- | --- | --- | --- | --- | --- | --- | --- | --- | --- | --- | --- | --- | --- |
| Oc1ccc(C2=Cc3ccc(O)cc3OC2c2ccc(OCCN3CCCCC3)cc2)cc1 (stereo unspecified) | 0.525 | 4.6 | – | – | – | – | – | – | – | – | – | – | – | – |
| CC1=C(c2ccc(OC(=O)C(C)(C)C)cc2)[C@H](c2ccc(OCCN3CCCCC3)cc2)Oc2cc(OC(=O)C(C)(C)C)ccc21 | 0.016 | 0.14 | 19.4 | 72.9 | 24.1 | 31.7 | 33.3 | 24.5 | 53.4 | 21.1 | 4.71 | 28.9 | 19 | Weight [4]: 24 mg; Weight [5]: 25 mg; Weight [6]: 21 mg; Weight [7]: 53 mg; Weight [9]: 24.7 mg; Weight [12]: 35.3 mg; Weight [14]: 84 mg; Weight [19]: 28.1 mg; Ki [20]: 11.14 nM; Weight [21]: 29.2 mg; IC50 [24]: 1.3 nM; Ki [24]: 0.023 nM |
| CC1=C(c2ccc(OC(=O)C(C)(C)C)cc2)[C@@H](c2ccc(OCCN3CCCCC3)cc2)Oc2cc(OC(=O)C(C)(C)C)ccc21 | 4.22 | 36.2 | 15.7 | 83.1 | 17.2 | 61.1 | 91.2 | 19.8 | 88.6 | 18 | > 270 | 75.7 | 16.5 | RBA [25]: < 0.04 |
